Like-named read-outs stand apart in the source and are kept apart here. Starred links: 1 amine or outer side, 2 acyl side, 3 side chain; linkers in the order of their positions; H or OH if unused. Non-standard residues stand in square brackets, D forms with d. Residues, ends and D or L forms follow the SMILES beside them. No end group written: not given here. *: point of attachment. X1 = CC(C)C[C@H](NC(=O)[C@@H](N)CS*)C(=O)N[C@@H](Cc1c[nH]cn1)C(=O)N[C@@H](Cc1ccccc1)C(=O)O; NH(1-Adamantyl) = C1C2CC3CC1CC(N*)(C2)C3; MeOSuc = COC(=O)CCC(=O)*; Octanoyl = CCCCCCCC(=O)*; Cbz = O=C(OCc1ccccc1)*; CO = O=C([*:1])[*:2]; Ahx = NCCCCCC(=O)O; Sar = CNCC(=O)O
Experiments:
[1] = target: T1, human leukocyte cathepsin G (hCG) (Homo sapiens, UniProt P08311); assay: In-vitro inhibition of hCG (conversion of Suc-AAPF-NA); type: biochemical
T1 construct: Neutrophils (1.4 billion) were isolated from whole blood obtained from a single healthy laboratory donor; from tissue; host or cells: neutrophils from whole blood of a single healthy donor
T1 sequence (P08311 21-244 limits assumed): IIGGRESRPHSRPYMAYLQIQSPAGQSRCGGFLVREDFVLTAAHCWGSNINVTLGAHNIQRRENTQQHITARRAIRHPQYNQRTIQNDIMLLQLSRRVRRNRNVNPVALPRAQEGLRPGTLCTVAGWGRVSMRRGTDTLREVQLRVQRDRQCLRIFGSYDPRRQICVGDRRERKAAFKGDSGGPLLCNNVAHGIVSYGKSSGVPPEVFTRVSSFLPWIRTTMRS
Method: (§1) The enzymatic activity was assayed with MeOSuc-AAPV-NA for hLE determination and Suc-AAPF-NA for hCG determination (both in 100 mM Hepes buffer, pH 7.4, containing 0.05% of the […] detergent Brij-35). The activities of the individual enzymatic fractions were 100% free from cross-contamination. […] The fractions containing hLE and hCG were dialyzed each against 0.1% pyridinium acetate, pH 5.3, divided into 20 aliquots, lyophilized, and stored at −20° C. until use.
Similar conditions to hLE inhibition experiments ere used except the substrate: 80 μL of 1.8 mM Suc-AAPF-NA. The enzyme was issolved in 800 μL buffer, and the reaction was monitored every 6 min for 1 hour. The final volume was 240 μL containing: 5% DMSO, 1-500 μM peptide, 600 μM substrate, and 1.2 μg enzyme (about 40 picomol).
For hCG, V is determined by fitting a quadratic equation to the total kinetic data (60 min), using the least squares method and calculating V at t=0.
The inhibitory capability of several CRP-derived peptides was evaluated by inhibiting the enzymatic conversion of Suc-AAPF-NA (as described in Materials and Methods (vi) above).

[2] = target: T2, human leukocyte elastase (hLE) (Homo sapiens, UniProt P08246); assay: In-vitro inhibition of hLE (cleavage of MeOSuc-AAPV-NA); type: biochemical
T2 construct: Neutrophils (1.4 billion) were isolated from whole blood obtained from a single healthy laboratory donor; from tissue; host or cells: neutrophils from whole blood of a single healthy donor
T2 sequence (P08246 30-247 limits assumed): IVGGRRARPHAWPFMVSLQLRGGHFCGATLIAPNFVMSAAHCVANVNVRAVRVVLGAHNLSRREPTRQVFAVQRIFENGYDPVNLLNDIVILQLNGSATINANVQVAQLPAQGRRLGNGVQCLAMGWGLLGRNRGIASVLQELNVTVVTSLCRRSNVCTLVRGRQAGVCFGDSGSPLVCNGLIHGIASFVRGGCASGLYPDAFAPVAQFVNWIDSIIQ
Method: as §1
Peptides were dissolved in 100 mM Hepes buffer pH 7.4 containing 0.1% Brij-35 with 10% DMSO to yield 600 μM solutions, which were used to make further dilutions with the same buffer, and 80 μL aliquots were added in duplicates to 96-well plates. The substrate, 600 or 900 μM MeOSuc-AAPV-NA in the same buffer with 5% DMSO, was added to each well in addition to the blank wells, and the plate was placed in the plate reader equilibrated to 37° C. (Dynateck MR-6000). Lyophilized aliquots of hLE were dissolved in 1600 μL of 100 mM Hepes buffer without DMSO, and 80 μL of the enzyme solution was added to the peptides and substrate to initiate the reaction. […] The final volume was 240 μL containing: 5% DMSO, 1-200 μM of peptide, 200 μM substrate, and 0.75 μg (about 25 picomol) enzyme.
For hLE, V is determined by fitting a linear equation to the first 6 time-points (10 min) of the kinetics data using the least squares method. […] From calculating the error in the slope of the equation, the relative error for Ki was deduced:
Ki={slope*(1+[S]/Km)}^−1 because Ki=[I]*{(1+[S]/Km)*(Vo/Vi−1)}^−1.
The hLE inhibitory capability of CRP-derived peptides was evaluated by inhibiting the enzymatic cleavage of MeOSuc-AAPV-NA as described in Materials and Methods (section v).

[3] = substrate MeOSuc-AAPV-NA, 100 mM Hepes pH 7.4, 37° C., read-out: hLE Ki

hLE inhibitory capability (in words) [2]	Compound	Ki [2] [µM]	other results
	CC[C@H](C)[C@H](NC(=O)[C@H](Cc1c[nH]cn1)NC(=O)[C@@H](NC(=O)[C@@H]1CCCN1C(=O)[C@H](C)NC(=O)[C@@H](NC(=O)[C@@H](NC(=O)[C@@H](N)C(C)C)[C@@H](C)O)C(C)C)C(C)C)C(=O)N[C@@H](CSSC[C@H](N)C(=O)N[C@@H](CC(C)C)C(=O)N[C@@H](Cc1c[nH]cn1)C(=O)N[C@@H](Cc1ccccc1)C(=O)O)C(=O)O [Peptide 4, Val89-Thr-Val-Ala-Pro-Val-His-Ile-Cys97-Cys36-His-Leu-Phe39] (H-VTVAPVHIC(X1)-OH)		hCG inhibitory capability (in words) [1]: completely inactive
	CC[C@H](C)[C@H](NC(=O)[C@H](Cc1c[nH]cn1)NC(=O)[C@@H](NC(=O)[C@@H]1CCCN1C(=O)[C@H](C)NC(=O)[C@@H](NC(=O)[C@@H](NC(=O)[C@@H](NC(=O)[C@H](CCC(=O)O)NC(=O)[C@@H]1CCCN1C(=O)[C@@H](NC(=O)[C@H](CCC(=O)O)NC(=O)[C@H](Cc1ccccc1)NC(=O)[C@H](CC(C)C)NC(=O)[C@@H](NC(=O)[C@H](CCC(=O)O)NC(=O)[C@H](CO)NC(=O)CN)[C@@H](C)CC)C(C)C)C(C)C)[C@@H](C)O)C(C)C)C(C)C)C(=O)N[C@@H](CSSC[C@H](N)C(=O)N[C@@H](CC(C)C)C(=O)N[C@@H](Cc1c[nH]cn1)C(=O)N[C@@H](Cc1ccccc1)C(=O)O)C(=O)O [Peptide 5, Gly79-Ser-Glu-Ile-Leu-Phe-Glu-Val-Pro-Glu-Val-Thr-Val-Ala-Pro-Val-His-Ile-Cys97-Cys36-His-Leu-Phe39] (H-GSEILFEVPEVTVAPVHIC(X1)-OH)		hCG inhibitory capability (in words) [1]: completely inactive
	CC[C@H](C)[C@H](NC(=O)[C@H](Cc1c[nH]cn1)NC(=O)[C@@H](NC(=O)[C@@H]1CCCN1C(=O)[C@H](C)NC(=O)[C@@H](NC(=O)[C@@H](NC(=O)[C@@H](NC(=O)CCC(=O)OC)C(C)C)[C@@H](C)O)C(C)C)C(C)C)C(=O)O [Peptide 15, MeOSuc-Val89-Thr-Val-Ala-Pro-Val-His-Ile96] (MeOSuc-VTVAPVHI-OH)	160 ± 30	
	CC[C@H](C)[C@H](NC(=O)[C@H](Cc1c[nH]cn1)NC(=O)[C@@H](NC(=O)[C@@H]1CCCN1C(=O)[C@H](C)NC(=O)[C@@H](NC(=O)[C@@H](NC(=O)[C@@H](NC(=O)[C@H](Cc1ccccc1)NC(=O)CCC(=O)OC)C(C)C)[C@@H](C)O)C(C)C)C(C)C)C(=O)O [Peptide 16, MeOSuc-Phe-Val89-Thr-Val-Ala-Pro-Val-His-Ile96] (MeOSuc-FVTVAPVHI-OH)	100 ± 10	Ki [1]: 100 ± 200 µM
	CC[C@H](C)[C@H](NC(=O)[C@H](Cc1c[nH]cn1)NC(=O)[C@@H](NC(=O)[C@@H]1CCCN1C(=O)[C@H](C)NC(=O)[C@@H](NC(=O)[C@@H](NC(=O)[C@@H](NC(=O)NC12CC3CC(CC(C3)C1)C2)C(C)C)[C@@H](C)O)C(C)C)C(C)C)C(=O)O [Peptide 17, Adamantyl-NH-CO-Val89-Thr-Val-Ala-Pro-Val-His-Ile96] ({NH(1-Adamantyl)-CO}-VTVAPVHI-OH)	130 ± 15	
	CCCCCCCC(=O)N[C@H](C(=O)N[C@H](C(=O)N[C@H](C(=O)N[C@@H](C)C(=O)N1CCC[C@H]1C(=O)N[C@H](C(=O)N[C@@H](Cc1c[nH]cn1)C(=O)N[C@H](C(=O)O)[C@@H](C)CC)C(C)C)C(C)C)[C@@H](C)O)C(C)C [Peptide 19, Octanoyl-Val89-Thr-Val-Ala-Pro-Val-His-Ile96] (Octanoyl-VTVAPVHI-OH)	280 ± 25	
	CC[C@H](C)[C@H](NC(=O)[C@H](Cc1c[nH]cn1)NC(=O)[C@@H](NC(=O)[C@@H]1CCCN1C(=O)[C@H](C)NC(=O)[C@@H](NC(=O)[C@@H](NC(=O)[C@@H](NC(=O)OCc1ccccc1)C(C)C)[C@@H](C)O)C(C)C)C(C)C)C(=O)O [Peptide 20, CBz-Val89-Thr-Val-Ala-Pro-Val-His-Ile96] (Cbz-VTVAPVHI-OH)	165 ± 35	
	CC[C@H](C)[C@H](NC(=O)[C@H](Cc1c[nH]cn1)NC(=O)[C@@H](NC(=O)[C@@H]1CCCN1C(=O)[C@H](C)NC(=O)[C@@H](NC(=O)[C@@H](NC(=O)[C@@H](NC(=O)CCCCCNC(C)=O)C(C)C)[C@@H](C)O)C(C)C)C(C)C)C(=O)O [Peptide 22, Acetyl-aminocaproyl-Val89-Thr-Val-Ala-Pro-Val-His-Ile96] (Ac-[Ahx]VTVAPVHI-OH)	210 ± 30	
	CC[C@H](C)[C@H](NC(=O)[C@H](Cc1c[nH]cn1)NC(=O)[C@@H](NC(=O)[C@H]1CCCN1C(=O)[C@H](C)NC(=O)[C@@H](NC(=O)[C@@H](NC(=O)[C@@H](N)C(C)C)[C@@H](C)O)C(C)C)C(C)C)C(=O)O [Peptide 27, Val89-Thr-Val-Ala-(D)Pro-Val-His-Ile96] (H-VTVA[dP]VHI-OH; N-terminus and C-terminus assumed)	560 ± 170	
	CC[C@H](C)[C@H](NC(=O)[C@@H](Cc1c[nH]cn1)NC(=O)[C@H](NC(=O)[C@H]1CCCN1C(=O)[C@H](C)NC(=O)[C@@H](NC(=O)[C@@H](NC(=O)[C@@H](N)C(C)C)[C@@H](C)O)C(C)C)C(C)C)C(=O)O [Peptide 28, Val89-Thr-Val-Ala-(D)Pro-(D)Val-(D)His-Ile96] (H-VTVA[dP][dV][dH]I-OH; N-terminus and C-terminus assumed)	2300 ± 300	
almost completely lost	CC[C@H](C)[C@H](NC(=O)[C@H](Cc1c[nH]cn1)NC(=O)[C@@H](NC(=O)CN(C)C(=O)[C@H](C)NC(=O)[C@@H](NC(=O)[C@@H](NC(=O)[C@@H](N)C(C)C)[C@@H](C)O)C(C)C)C(C)C)C(=O)O [Peptide 30, Val89-Thr-Val-Ala-Sarcosine-Val-His-Ile96] (H-VTVA[Sar]VHI-OH; N-terminus and C-terminus assumed)		Ki [2, 3]: 1400 ± 500 µM
No significant inhibition	Asn160-Met-Trp-Asp-Phe-Val165 [reference compound]		
No significant inhibition	Asp70-Ile-Gly-Tyr-Ser74 [reference compound]		
No significant inhibition	Asp112-Gly-Lys-Pro-Arg-Val-Arg-Lys119 [reference compound]		
No significant inhibition	Gln203-Leu-Trp-Pro206 [reference compound]		
	LEAIPMSI [Peptide 24, Leu-Glu-Ala-Ile-Pro-Met-Ser-Ile, reference compound]		Ki [2, 3]: 350 ± 70 µM
No significant inhibition	Phe84-Glu-Val-Pro-Glu-Val-Thr90 [reference compound]		
No significant inhibition	Ser18-Tyr-Val-Ser-Leu-Lys23 [reference compound]		
No significant inhibition	Thr76-Val-Gly-Gly-Ser80 [reference compound]		
No significant inhibition	Thr200-Lys-Pro-Gln-Leu-Trp-Pro206 [reference compound]		
	VAPVHI [Peptide 26, Val91-Ala-Pro-Val-His-Ile96]		Ki [2, 3]: 1000 ± 250 µM
	VTVAPV [Peptide 25, Val89-Thr-Val-Ala-Pro-Val94]		Ki [2, 3]: 900 ± 300 µM
	VTVAPVHIP-NH2 [Peptide 12, Val89-Thr-Val-Ala-Pro-Val-His-Ile96-Pro-NH2]	70 ± 5	
	VTVAPVHIPP-NH2 [Peptide 14, Val89-Thr-Val-Ala-Pro-Val-His-Ile96-Pro-Pro-NH2]	85 ± 10	
	VTVAPVSI [Peptide 9, Val89-Thr-Val-Ala-Pro-Val-Ser-Ile96]		Ki [2, 3]: 200 ± 20 µM
No significant inhibition	Val153-Gly-Asp-Ile-Gly-Asn-Val159 [reference compound]		
minute	Val-Ala-Pro-Val (VAPV; printed: Val-Ala-Pro-Val) [reference compound]		
